According to patent US20120189543A1, “Compositions and Methods for Detecting and Treating Implant Loosening and Osteolysis” (priority 2009, published 2012):

Key:
IL-1α mRNA = test: PMMA particle-induced IL-1α mRNA in cultured human monocytes (real-time RT-PCR); settings: 4 hours pulse P-Dex 5 μM or free Dex 0.6 μM, PMMA 3 hours; n=3; p<0.05
Description: (§1) Cells were cultured for 24 hours at a cell density of 10^6 cells/mL in a-MEM medium (Invitrogen, Carlsbad, Calif.) supplemented with 10% fetal bovine serum (VWR, West Chester, Pa.) and 1% antibiotic/antimycotic (Invitrogen, Carlsbad, Calif.) in the presence of 10 ng/mL human M-CSF (Peprotech, Rocky Hill, N.J.) in 24-well tissue culture plates (1 mL/well). Cells were then pulsed for 4 hours with P-Dex (5 μM) or free Dex (dexamethasone phosphate sodium, 0.6 μM), washed and replenished with fresh medium. […] After 24 hours, cells were treated +/−PMMA particles (30 particles/cell) for 3 hours. Total cellular RNA was prepared (RNeasy, Qiagen) and analyzed by real-time RT-PCR as previously described for inflammatory cytokines (IL 1-α, IL-1- β).

[1] = tested on: pro-inflammatory cytokine response (e.g., TNF and IL-1); test: Particle-induced pro-inflammatory cytokine response in human monocytes; settings: pretreatment of PMMA challenged monocytes
Description: as §1

IL-1β mRNA = test: PMMA particle-induced IL-1β mRNA in cultured human monocytes (real-time RT-PCR); settings: 4 hours pulse P-Dex 5 μM or free Dex 0.6 μM, PMMA 3 hours; n=3
Description: as §1

[2] = tested on: PMMA particle implantation site (calvaria); set-up: species or system Swiss Webster mice; settings: mouse, in vivo
Source text: The group injected with PBS was used as a negative control and was given the same dose of P-IRDye. The mice were imaged prior to and daily after contrast agent injection using an XENOGEN IVIS® 200 Series Imaging System (Hopkinton, Mass.) to evaluate the distribution of the HPMA copolymer conjugate continuously for the 6 days.

Row | Compound | IL-1α mRNA level of PMMA group compared with treated group (IL-1α mRNA) | effect of pretreatment on particle-induced pro-inflammatory cytokine response [1] | IL-1β mRNA level of PMMA group compared with treated group (IL-1β mRNA) | NIR signal at particle implantation site, % of the original signal intensity [2] [%] | persistence of the P-IRDye signal [2]
1 | C[C@@H]1C[C@H]2[C@@H]3CCC4=CC(=O)C=C[C@]4(C)[C@@]3(F)[C@@H](O)C[C@]2(C)[C@@]1(O)C(=O)COP(=O)([O-])[O-].[Na+].[Na+] [Dex, dexamethasone phosphate sodium] | significantly higher | significant repression | higher (but not significantly) | – | –
2 | IRDye 800CW-labeled HPMA Copolymer [P-IRDye] | – | – | – | 60 | over 7 days
